Structures can show the parent of a compound that is named as a salt.
Legend:
[1] = biological target: wild type human HSD17B13 (Homo sapiens (Human), UniProt Q7Z5P4); test: HEK_Beta-Est LCMS_IC50_Tekcel, whole-cell HEK-HSD17B13 inhibition assay, estrone production by LCMS; type: cell-based; conditions: geometric mean, HEK cells stably expressing wild type human HSD17B13, 25 μM FAC beta-estradiol, read-out: HEK_Beta-Est LCMS_IC50—Tekcel GMean IC50
Summary of the method: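 Readout was LCMS quantitation of estrone made from beta-estradiol with NAD+ as cofactor. Whole HEK-HSD17B13 cells were given compound for 1 hour, then the reaction for 2 hours, both at 37° C. Product area ratios were normalized to vehicle controls as zero percent effect.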

[2] = biological target: HSD17B13 enzyme (Homo sapiens (Human), UniProt Q7Z5P4); test: hHSD17B13 IC50 Assay (FAC beta-estradiol), purified protein enzyme activity assay with NAD(P)H-Glo luciferase readout; type: biochemical; conditions: geometric mean, 12 μM FAC beta-estradiol, 500 μM NAD+, read-out: hHSD17B13_IC50 GMean IC50
HSD17B13 enzyme, sequence (Q7Z5P4 20-300): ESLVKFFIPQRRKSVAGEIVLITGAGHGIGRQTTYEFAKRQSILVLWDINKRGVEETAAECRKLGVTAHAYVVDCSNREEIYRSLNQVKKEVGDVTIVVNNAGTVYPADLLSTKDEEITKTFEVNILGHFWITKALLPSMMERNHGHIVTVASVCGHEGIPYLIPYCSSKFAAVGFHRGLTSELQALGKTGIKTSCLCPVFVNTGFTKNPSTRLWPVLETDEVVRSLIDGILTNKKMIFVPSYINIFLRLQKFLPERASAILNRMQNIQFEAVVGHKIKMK
Description: The following protocols may of course be varied by those skilled in the art. hHSD17B13 IC50 Assay (FAC beta-estradiol)
HSD17B13 enzyme inhibition potency of test compounds was determined using a purified protein biochemical enzyme activity assay, using NAD(P)H-Glo luciferase readout (Promega). HSD17B13 enzyme uses the oxidized form of nicotinamide adenine dinucleotide (NAD+) as a cofactor during metabolism of Beta-Estradiol (substrate) to […], while converting NAD+ to the reduced form (NADH). The Promega NAD(P)H-Glo™ assay is a homogeneous bioluminescent assay that generates a light signal from biochemical reactions that contain NADH (or nicotinamide adenine dinucleotide phosphate, NADPH). In the presence of NADH (or NADPH), the enzyme Reductase reduces a proluciferin reductase substrate to form luciferin. Luciferin then is quantified using Ultra-Glo™ Recombinant Luciferase (rLuciferase), and the light signal produced is proportional to the amount of NAD(P)H in the sample. […] The reaction was initiated by the addition of 2 μL/well purified HSD17B13 protein (30 nM FAC in assay buffer). Compound, substrate mix and HSD17B13 protein was incubated in the dark at room temperature for 2 hours before the addition of 3 μL/well NAD(P)H-Glo detection reagent, prepared from luciferase detection reagent and reductase/reductase substrate, as per manufacturer's instructions (Promega, G9061). Detection reagent was incubated in the dark for 1 hour at room temperature before plates were read on the Envision plate reader (Perkin Elmer) using a luminescent protocol. Data expressed as relative luminescent units (RLUs) were then normalized to control wells using Activity Base (IDBS). Zero percent effect (ZPE) was defined as RLUs generated from uninhibited HSD17B13 protein (vehicle control).

wild type human HSD17B13, sequence (Q7Z5P4 20-300): as above

| Compound | IC50 [1] [nM] | IC50 [2] [nM] |
| --- | --- | --- |
| COc1cccc(-c2ccc3cn([C@H]4CC[C@H](CNC(=O)c5cc(F)c(O)c(F)c5)CC4)nc3c2)c1 [Example 64, 3,5-difluoro-4-hydroxy-N-({(1r,4r)-4-[6-(3-methoxyphenyl)-2H-indazol-2-yl]cyclohexyl}methyl) benzamide] | 350 | 5.6 |
| O=C(NC[C@H]1CC[C@H](n2cc3ccc(-c4cnccn4)cc3n2)CC1)c1cc(F)c(O)c(F)c1 [Example 65, 3,5-difluoro-4-hydroxy-N-({(1r,4r)-4-[6-(pyrazin-2-yl)-2H-indazol-2-yl]cyclohexyl}methyl) benzamide] | 170 | 13 |
| COc1cnc(-c2ccc3cn([C@H]4CC[C@H](CNC(=O)c5cc(F)c(O)c(F)c5)CC4)nc3c2)nc1 [Example 66, 3,5-difluoro-4-hydroxy-N-({(1r,4r)-4-[6-(5-methoxypyrimidin-2-yl)-2H-indazol-2-yl]cyclohexyl}methyl) benzamide] | 180 | 7.5 |
| COc1ccc(-c2ccc3cn([C@H]4CC[C@H](CNC(=O)c5cc(F)c(O)c(F)c5)CC4)nc3c2)cc1 [Example 67, 3,5-difluoro-4-hydroxy-N-({(1r,4r)-4-[6-(4-methoxyphenyl)-2H-indazol-2-yl]cyclohexyl}methyl) benzamide] | 270 | 31 |
| O=C(NC[C@H]1CC[C@H](n2cc3ccc(-c4ccccc4)cc3n2)CC1)c1cc(F)c(O)c(F)c1 [Example 68, 3,5-difluoro-4-hydroxy-N-{[(1r,4r)-4-(6-phenyl-2H-indazol-2-yl)cyclohexyl]methyl} benzamide] | 270 | 7.8 |
| O=C(NC[C@H]1CC[C@H](n2cc3ccc(-c4cscn4)cc3n2)CC1)c1cc(F)c(O)c(F)c1 [Example 69, 3,5-difluoro-4-hydroxy-N-({(1r,4r)-4-[6-(1,3-thiazol-4-yl)-2H-indazol-2-yl]cyclohexyl}methyl) benzamide] | 130 | 8.4 |
| N#Cc1ccc(-c2ccc3cn([C@H]4CC[C@H](CNC(=O)c5cc(F)c(O)c(F)c5)CC4)nc3c2)cc1 [Example 70, N-({(1r,4r)-4-[6-(4-cyanophenyl)-2H-indazol-2-yl]cyclohexyl}methyl)-3,5-difluoro-4-hydroxybenzamide] | 190 | 3.8 |
| O=C(NC[C@H]1CC[C@H](n2cc3ccc(-c4ccnnc4)cc3n2)CC1)c1cc(F)c(O)c(F)c1 [Example 71, 3,5-difluoro-4-hydroxy-N-({(1r,4r)-4-[6-(pyridazin-4-yl)-2H-indazol-2-yl]cyclohexyl}methyl)benzamide] | 430 | 9.6 |
| O=C(NC[C@H]1CC[C@H](n2cc3ccc(-c4cccnc4)cc3n2)CC1)c1cc(F)c(O)c(F)c1 [Example 72, 3,5-difluoro-4-hydroxy-N-({(1r,4r)-4-[6-(pyridin-3-yl)-2H-indazol-2-yl]cyclohexyl}methyl) benzamide] | 170 | 7.8 |
| COc1ncc(-c2ccc3cn([C@H]4CC[C@H](CNC(=O)c5cc(F)c(O)c(F)c5)CC4)nc3c2)cn1 [Example 73, 3,5-difluoro-4-hydroxy-N-({(1r,4r)-4-[6-(2-methoxypyrimidin-5-yl)-2H-indazol-2-yl]cyclohexyl}methyl) benzamide] | 170 | 13 |
| Cc1cnc(-c2ccc3cn([C@H]4CC[C@H](CNC(=O)c5cc(F)c(O)c(F)c5)CC4)nc3c2)nc1 [Example 74, 3,5-difluoro-4-hydroxy-N-({(1r,4r)-4-[6-(5-methylpyrimidin-2-yl)-2H-indazol-2-yl]cyclohexyl}methyl)benzamide] | 170 | 12 |
| O=C(NC[C@H]1CC[C@H](n2cc3ccc(-c4ccccn4)cc3n2)CC1)c1cc(F)c(O)c(F)c1 [Example 75, 3,5-difluoro-4-hydroxy-N-({(1r,4r)-4-[6-(pyridin-2-yl)-2H-indazol-2-yl]cyclohexyl}methyl)benzamide] | 210 | 19 |
| O=C(NC[C@H]1CC[C@H](n2cc3ccc(-c4cncnc4)cc3n2)CC1)c1cc(F)c(O)c(F)c1 [Example 76, 3,5-difluoro-4-hydroxy-N-({(1r,4r)-4-[6-(pyrimidin-5-yl)-2H-indazol-2-yl]cyclohexyl}methyl)benzamide] | 190 | 19 |
| Cc1ncc(-c2ccc3cn([C@H]4CC[C@H](CNC(=O)c5cc(F)c(O)c(F)c5)CC4)nc3c2)cn1 [Example 77, 3,5-difluoro-4-hydroxy-N-({(1r,4r)-4-[6-(2-methylpyrimidin-5-yl)-2H-indazol-2-yl]cyclohexyl}methyl) benzamide] | 160 | 13 |
| COc1cccc2nn([C@H]3CC[C@H](CNC(=O)c4cc(F)c(O)c(F)c4)CC3)cc12 [Example 122, 3,5-difluoro-4-hydroxy-N-{[(1r,4r)-4-(4-methoxy-2H-indazol-2-yl)cyclohexyl]methyl} benzamide] | 310 | 14 |
| Cc1ccc(-c2noc([C@]34CC[C@](CNC(=O)c5cc(F)c(O)c(F)c5)(CC3)CC4)n2)nn1 [Example 123, 3,5-difluoro-4-hydroxy-N-({4-[3-(6-methylpyridazin-3-yl)-1,2,4-oxadiazol-5-yl]bicyclo[2.2.2]octan-1-yl}methyl)benzamide] | 460 | 10 |
| COc1ccc(-c2noc([C@]34CC[C@](CNC(=O)c5cc(F)c(O)c(F)c5)(CC3)CC4)n2)nn1 [Example 124, 3,5-difluoro-4-hydroxy-N-({4-[3-(6-methoxypyridazin-3-yl)-1,2,4-oxadiazol-5-yl]bicyclo [2.2.2]octan-1-yl}methyl)benzamide] | 160 | 7.1 |
| O=C(NC[C@]12CC[C@](n3cc4cc(C(F)(F)F)ccc4n3)(CC1)CC2)c1cc(F)c(O)c(F)c1 [Example 125, 3,5-difluoro-4-hydroxy-N-({4-[5-(trifluoromethyl)-2H-indazol-2-yl]bicyclo[2.2.2]octan-1-yl}methyl)benzamide] | 250 | 17 |
| O=C(NC[C@]12CC[C@](c3noc(-c4ccc(OS(=O)(=O)F)cc4)n3)(CC1)CC2)c1cc(F)c(O)c(F)c1 [Example 126, 4-(3-{4-[(3,5-difluoro-4-hydroxybenzamido)methyl]bicyclo[2.2.2]octan-1-yl}-1,2,4-oxadiazol-5-yl) phenyl sulfurofluoridate] | 430 | 16 |
| COc1cnc(-c2noc([C@H]3CC[C@H](CNC(=O)c4cc(F)c(O)c(F)c4)CC3)n2)cn1 [Example 127, 3,5-difluoro-4-hydroxy-N-({(1r,4r)-4-[3-(5-methoxy-pyrazin-2-yl)-1,2,4-oxadiazol-5-yl]cyclohexyl}methyl) benzamide] | 350 | 13 |
| CS(=O)(=O)c1ccc(-c2noc([C@H]3CC[C@H](CNC(=O)c4cc(F)c(O)c(F)c4)CC3)n2)cc1 [Example 128, 3,5-difluoro-4-hydroxy-N-{[(1r,4r)-4-{3-[4-(methanesulfonyl)phenyl]-1,2,4-oxadiazol-5-yl}cyclohexyl]methyl} benzamide] | 400 | 16 |
| COc1ccc2nn([C@H]3CC[C@H](CNC(=O)c4cc(F)c(O)c(F)c4)CC3)cc2c1 [Example 129, 3,5-difluoro-4-hydroxy-N-{[(1r,4r)-4-(5-methoxy-2H-indazol-2-yl)cyclohexyl]methyl}benzamide] | 400 | 33 |
| Cc1ccc2cn([C@H]3CC[C@H](CNC(=O)c4cc(F)c(O)c(F)c4)CC3)nc2c1 [Example 130, 3,5-difluoro-4-hydroxy-N-{[(1r,4r)-4-(6-methyl-2H-indazol-2-yl)cyclohexyl]methyl}benzamide] | 330 | 27 |
| Cc1ccc2nn([C@H]3CC[C@H](CNC(=O)c4cc(F)c(O)c(F)c4)CC3)cc2c1 [Example 131, 3,5-difluoro-4-hydroxy-N-{[(1r,4r)-4-(5-methyl-2H-indazol-2-yl)cyclo-hexyl]methyl} benzamide] | 270 | 27 |
| O=C(NC[C@H]1CC[C@H](n2cc3cc(Cl)ccc3n2)CC1)c1cc(F)c(O)c(F)c1 [Example 132, N-{[(1r,4r)-4-(5-chloro-2H-indazol-2-yl)cyclohexyl]methyl}-3,5-difluoro-4-hydroxybenzamide, ammonium salt] | 140 | 14 |
| O=C(NC[C@H]1CC[C@H](n2cc3cc(F)ccc3n2)CC1)c1cc(F)c(O)c(F)c1 [Example 133, 3,5-difluoro-N-{[(1r,4r)-4-(5-fluoro-2H-indazol-2-yl)cyclohexyl]methyl}-4-hydroxybenzamide, ammonium salt] | 280 | 29 |

Reference: US20240150334A1, “HSD17B13 INHIBITORS AND/OR DEGRADERS” (Pfizer Inc., priority 2022, published 2024)
